This note sets out measurements from patent US5981517A, “Androstene derivatives” (priority 1997, dated 1999).

Data set [1] relates to forearm of a human volunteer. In words: Further human vasoconstriction testing, Method 2. The format is in vivo. More on the design: key: +: "positive" (pallor could be observed); -: "negative" (pallor could not be detected). Here is the method: The mixtures, in 20 μL amounts, were applied to circular patches (1/4 inch diameter). The patches were applied to the forearm of a human volunteer, and covered with a water impervious film for 3 hr. Vasoconstriction activity was judged by the appearance of pallor at various time points after the patches were removed. Tests were performed on the same person and the results were obtained from 2-4 observations.
In TABLE XIV above, "-" means a negative result was obtained. In other tables herein, "-" means not tested.
In TABLE XIV above, the results of a simpler method of judging vasoconstriction activity was used in which only "positive" (pallor could be observed) or "negative" (pallor could not be detected) results were recorded.

Data set [2] in a line: Stability in human plasma. The format is in vitro ADME. As to conditions: human, plasma. As for the experimental part:
(§1) A Waters NOVA-PAK phenyl column was connected to a Spectra-Physics component system consisting of a SP 8810 precision isocratic pump, a Rheodyne 7125 injector (injection volume 20 μL), an SP 8450 UV/VIS variable wavelength detector (operated at 254 nm) and a SP 4270 integrator. […]. The retention times of compound of the invention J and its metabolities L and M were 8.64, 2.70 and 2.45 minutes, respectively. The retention times of compound of the invention I and its metabolites N and 0 were 5.84, 2.70 and 1.81 minutes, respectively. The retention time of cortienic acid was 1.00 minute.
(§2) Freshly collected human or rat plasma was used. An aliquot of 10 mM test compound in ethanol solution was added to prewarmed (37° C.) plasma to yield a final concentration of 100 μM. At appropriate time intervals, samples (0.1 mL) were removed and mixed with 0.2 mL of 5% dimethylsulfoxide/acetonitrile solution. Mixtures were centrifuged and supernatants were analyzed by HPLC. The pseudo-first order rate constant of the disappearance of compound in the biological media was determined by linear regression analysis from the plot of log peak area and peak height versus time.
(§3) Stability was evaluated by the pseudo first-order rate constant (k, hr^-1) and half-life (t1/2, hr) of the disappearance of the test compound in the media.

Another data set in a line: Stability in rat plasma. Particulars: rat, plasma. The format is in vitro ADME. Here is the method: as §1, §2, §3
Data set [3] concerns forearm of a human volunteer. The data set can be described thus: Human vasoconstriction test. The format is in vivo. More on the design: key: 0 = normal skin, 4 = very intense pallor. Particulars: 10 mM. Here is the method:
Test compounds (10 mM) were dissolved in ethanol/propylene glycol (9/1) solution, and 50 μL of the mixtures were applied to circular patches, 8 mm in diameter. After ethanol evaporation, the patches were applied to the forearm of a human volunteer, and covered with a water impervious film for 3 hours. The intensity of vasoconstriction was judged 1, 8, 17 and 24 hours after the patches were removed.
The grading scale for the vasoconstriction activity was as follows: 0, normal skin; 1, slight pallor of indistinct outline; 2, pallor with at least two corners outlined; 3, even pallor with a clear outline of the application sites; 4, very intense pallor.

A further data set is described as follows: physchem. The format is physicochemical. As for the experimental part:
(§4) A Whatman C-18 column (4.6 mm×108 mm) was connected to a Spectra-Physics component system consisting of a SP 8810 precision isocratic pump, Rheodyne 7125 injector (20 μL injection volume), SP 8450 UV/VIS variable wavelength detector (230 nm), and SP 4290 integrator. The system was operated at ambient temperature. The mobile phase consisted of acetonitrile, acetic acid and water (60:0.1:40). At a flow rate of 1.0 mL/minute, the retention times for the test compounds were 4.74 minutes for Compound A, 5.84 minutes for Compound B, 6.93 minutes for Compound C, and 5.72 minutes for Compound D.
(§5) HPLC peak area and peak height were used as a measure of the concentration of the test compounds and plotted against time to evaluate the disappearance rates of the compounds. The stability was determined by measuring the pseudo-first order rate constant (kobs in min^-1) or half-life (t1/2 in min) of disappearance of the test compound in buffer. […].
The stabilities of test compounds A, B, C, and D, were tested in buffer solutions in the pH range of 4.0 to 9.0. A 0.1 mL portion of each compound at a concentration of 1 mM was mixed with 10 mL phosphate buffer (made by combining 0.05 M of NaH2 PO4 and 0.05 M of Na2 HPO4 with 0.05 M of NaCl) to give a final concentration of 0.01 mM. The mixtures were incubated at 37° C., and samples were taken and injected in the HPLC system at appropriate time intervals. pH profiles of each test compound are shown in TABLE III below. […]

The nature of data set [4]: Stability in liver homogenate. The format is in vitro ADME, rat. Particulars: rat, liver homogenate. Here is the method: as §4, §5
(§6) A 0.2 mL aliquot of stock solution (1 mM) of each of the test compounds A, B, C, and D, was added to 2 mL of each biological media (whole heparinized rat blood, 20% rat liver homogenate, and 6-volume diluted lung homogenate in isotonic buffer of pH 7.40 made by combining 0.05 M of Na2 HPO4 and 0.05 M of NaH2 PO4 with 0.05 M of NaCl), which was kept in a 37° C. water bath, to obtain a final concentration of 0.1 mM in each biological medium. Samples of 0.1 mL were taken at appropriate time intervals for 2 hours (at 0, 3, 5, 10, 20, 40, 60, 90 and 120 minutes) and mixed with 0.2 mL of acetonitrile containing 5% DMSO. Each mixture was centrifuged and the supernatant was injected in the HPLC.

Data set [5] in a line: Stability in lung homogenate. The format is in vitro ADME. As to conditions: rat, lung homogenate. As for the experimental part: as §4, §5, §6
A further data set can be described thus: Stability in rat blood. The format is in vitro ADME. Particulars: rat, blood. As for the experimental part: as §4, §5, §6
Where [6] appears, read: aqueous phosphate buffer, pH 4.5.
[7] abbreviates: aqueous phosphate buffer, pH 6.56.
Where [8] appears, read: aqueous phosphate buffer, pH 7.4.
The mark [9] stands for this setting: aqueous phosphate buffer, pH 8.08.

With `COC(=O)[C@@]1(OC(=O)C(Cl)Cl)[C@H](C)C[C@H]2[C@@H]3CCC4=CC(=O)C=C[C@]4(C)[C@@]3(F)[C@@H](O)C[C@@]21C` [Compound I, methyl 17α-dichloroacetoxy-9α-fluoro-11β-hydroxy-16α-methylandrosta-1,4-dien-3-one-17β-carboxylate], the Vasoconstriction activity entry in data set [1] (4 Hours, 0.01 mM) is recorded as “-”; in data set [1] (4 Hours, 0.05 mM) it was “-”; in data set [1] (4 Hours, 0.1 mM), “+”; in data set [1] (4 Hours, 0.5 mM) it was “+”; in data set [1] (4 Hours, 1 mM), “+”; in data set [1] (4 Hours, 5 mM), “+”. Moreover, the Vasoconstriction activity result is recorded as “-” in data set [1] (8 Hours, 0.01 mM); “+” in data set [1] (8 Hours, 0.05 mM); “+” in data set [1] (8 Hours, 0.1 mM); “+” in data set [1] (8 Hours, 0.5 mM); “+” in data set [1] (8 Hours, 1 mM); “+” in data set [1] (8 Hours, 5 mM). Moreover, the Vasoconstriction activity entry in data set [1] (10-22 hours, 0.01 mM) was “-”; in data set [1] (10-22 hours, 0.05 mM) it was “-”; in data set [1] (10-22 hours, 0.1 mM) it was “+”; in data set [1] (10-22 hours, 0.5 mM) it was “+”; in data set [1] (10-22 hours, 1 mM), “+”; in data set [1] (10-22 hours, 5 mM), “+”. For the same compound, the Vasoconstriction activity result is reported as “-” in data set [1] (24 Hours, 0.01 mM); “-” in data set [1] (24 Hours, 0.05 mM); “+” in data set [1] (24 Hours, 0.1 mM); “+” in data set [1] (24 Hours, 0.5 mM); “+” in data set [1] (24 Hours, 1 mM); “+” in data set [1] (24 Hours, 5 mM). Besides, the half-life at 100 µM in data set [2] is 10.9 h; in the data set “Stability in rat plasma” it was 9.88 h.

For the compound `C[C@]12C=CC(=O)C=C1CC[C@@H]1[C@@H]2[C@@H](O)C[C@@]2(C)[C@H]1CC[C@]2(OC(=O)C(Cl)Cl)C(=O)OCCl` [Compound D, Chloromethyl 17α-dichloroacetoxy-11β-hydroxyandrosta-1,4-dien-3-one-17β-carboxylate], the Vasoconstriction activity in data set [3] (1 hour after patch removal) is 3; in data set [3] (8 hours after patch removal), 4; in data set [3] (17 hours after patch removal), 3; in data set [3] (24 hours after patch removal), 2. In addition, the half-life worked out at 14 h in “physchem” (setting [6]); 0.822 h in “physchem” (setting [7]); 0.232 h in “physchem” (setting [8]); 0.0483 h in the data set “physchem” (setting [9]); 0.0178 h in “physchem” (aqueous phosphate buffer, pH 9); 0.232 h in the data set “physchem” (buffer, pH 7.4). Further, the half-life at 100 µM in data set [4] was 0.127 h; in data set [5] it was 0.873 h; in “Stability in rat blood” it was 0.193 h.

Take `COC(=O)[C@@]1(OC(=O)C(Cl)Cl)CC[C@H]2[C@@H]3CCC4=CC(=O)C=C[C@]4(C)[C@H]3[C@@H](O)C[C@@]21C` [Compound A, Methyl 17α-dichloroacetoxy-11β-hydroxyandrosta-1,4-dien-3-one-17β-carboxylate]: the Vasoconstriction activity is on record as 2 in data set [3] (1 hour after patch removal), 4 in data set [3] (8 hours after patch removal), 4 in data set [3] (17 hours after patch removal) and 4 in data set [3] (24 hours after patch removal). Further, the half-life was over 48 h in “physchem” (setting [6]); 19.1 h in the data set “physchem” (setting [7]); 3.37 h in the data set “physchem” (setting [8]); 0.35 h in “physchem” (setting [9]); 0.0708 h in “physchem” (aqueous phosphate buffer, pH 9); 3.37 h in “physchem” (buffer, pH 7.4). Moreover, the half-life at 100 µM in data set [4] worked out at 0.0617 h; in data set [5], 0.718 h; in “Stability in rat blood” it was 0.448 h.

With `CCOC(=O)[C@@]1(OC(=O)C(Cl)Cl)[C@H](C)C[C@H]2[C@@H]3CCC4=CC(=O)C=C[C@]4(C)[C@@]3(F)[C@@H](O)C[C@@]21C` [J, ethyl 17α-dichloroacetoxy-9α-fluoro-11β-hydroxy-16α-methylandrosta-1,4-dien-3-one-17β-carboxylate], the Vasoconstriction activity entry is “-” in data set [1] (4 Hours, 0.01 mM); “-” in data set [1] (4 Hours, 0.05 mM); “-” in data set [1] (4 Hours, 0.1 mM); “-” in data set [1] (4 Hours, 0.5 mM); “+” in data set [1] (4 Hours, 1 mM); “+” in data set [1] (4 Hours, 5 mM). In addition, the Vasoconstriction activity entry is “-” in data set [1] (8 Hours, 0.01 mM); “-” in data set [1] (8 Hours, 0.05 mM); “-” in data set [1] (8 Hours, 0.1 mM); “+” in data set [1] (8 Hours, 0.5 mM); “+” in data set [1] (8 Hours, 1 mM); “+” in data set [1] (8 Hours, 5 mM). Besides, the Vasoconstriction activity result in data set [1] (10-22 hours, 0.01 mM) is recorded as “-”; in data set [1] (10-22 hours, 0.05 mM), “-”; in data set [1] (10-22 hours, 0.1 mM), “-”; in data set [1] (10-22 hours, 0.5 mM), “+”; in data set [1] (10-22 hours, 1 mM) it was “+”; in data set [1] (10-22 hours, 5 mM) it was “+”. The Vasoconstriction activity result in data set [1] (24 Hours, 0.01 mM) is on record as “-”; in data set [1] (24 Hours, 0.05 mM) it was “-”; in data set [1] (24 Hours, 0.1 mM), “-”; in data set [1] (24 Hours, 0.5 mM) it was “+”; in data set [1] (24 Hours, 1 mM) it was “+”; in data set [1] (24 Hours, 5 mM) it was “+”. Further, the half-life at 100 µM in data set [2] is 40.1 h; in “Stability in rat plasma”, 40.7 h.

On to `CC(C)OC(=O)[C@@]1(OC(=O)C(Cl)Cl)CC[C@H]2[C@@H]3CCC4=CC(=O)C=C[C@]4(C)[C@H]3[C@@H](O)C[C@@]21C` [Compound C, Isopropyl 17α-dichloroacetoxy-11β-hydroxyandrosta-1,4-dien-3-one-17β-carboxylate], for which the Vasoconstriction activity came out at 3 in data set [3] (1 hour after patch removal), 4 in data set [3] (8 hours after patch removal), 3 in data set [3] (17 hours after patch removal) and 2 in data set [3] (24 hours after patch removal). Besides, the half-life in “physchem” (setting [6]) is over 48 h; in the data set “physchem” (setting [7]), 11.3 h; in the data set “physchem” (setting [8]), 16.2 h; in the data set “physchem” (setting [9]), 2.08 h; in “physchem” (aqueous phosphate buffer, pH 9), 0.27 h; in the data set “physchem” (buffer, pH 7.4), 11 h. The half-life at 100 µM in data set [4] worked out at 0.488 h; in data set [5], 2.84 h; in “Stability in rat blood”, 1.78 h.
